Where two headings read alike, the source gives them in different places.
Assays:
[1] = test system: human melanoma LOX; assay: survival of nude mice implanted with human melanoma LOX; assay type: in vivo, male athymic Swiss nu/nu mouse (human tumor); settings: Mus musculus, ip, 24 h, read-out: T/C
Procedure: LOX, a human melanoma cell line, grown subcutaneously in nude mice was excised, trypsinized to yield a single cell suspension using a metal grid with a […] mesh. […] Five million viable trypan blue negative cells made up in 0.1 ml of Dulbecco modified Eagle medium (DMFE) were injected into the peritoneal cavity of a male athymic Swiss nu/nu mouse. The control group and each treatment group consisted of 5 to 10 mice. Treatment was commenced the following day by intraperitoneal injection.
Ten control mice received 0.25 ml of 2% dextrose on these days the treated groups were injected with the compounds of this invention. […] T/C is the ratio, expressed as a percentage of the mean survival age of the treated group to the mean survival age of the untreated control group.

[2] = test system: CV-1 cells; assay: selective killing assay, colony number reduced to 50% of control, normal monkey kidney epithelial cell line CV-1; assay type: cell-based; settings: 24 hours treatment; for IC50: Primates
Text: The control received culture media only.

[3] = test system: CX-1 cells; assay: selective killing assay, colony number reduced to 50% of control, human colon carcinoma cell line CX-1; assay type: cell-based; settings: for Selectivity (ratio of IC50 for CV-1 and IC50 for CX-1): CV-1/CX-1; for IC50: Homo sapiens, CX-1, Table III; for IC50 / CX-1 (IC50): human colon carcinoma, 24 hours treatment, colony count after 7 to 10 days; for CX-1 (IC50): Table III;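 on all read-outs here: colonies stained with crystal violet and counted, control cells given medium alone, exposure at 37 °C, normal monkey kidney epithelial CV-1 cells as the non-cancer comparator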
Procedure: (§1) Human colon carcinoma cell line CX-1 or normal monkey kidney epithelial cell line CV-1 was chosen as representatives of cancer cells and normal cells, respectively. […] CX-1 cells (2,000 cells/well) and CV-1 cells (1,000 cells/well) were plated in 24-well plastic culture plates. […] The control received culture media only. Cells were treated with compounds of General Formulas (I) to (V) at 37° C. for 24 hours. After rinsing with fresh culture medium three times, the cells were further incubated at 37° C. for 7 to 10 days. Cell colonies were fixed and stained with 2% crystal violet in 70% ethanol for 10 minutes and rinsed in water. […] The selectivity is defined as the ratio of IC50 for CV-1 and IC50 for CX-1.

[4] = test system: EJ cells; assay: colony assay of Example 1 with human bladder carcinoma EJ cell line; assay type: cell-based; settings: for Selectivity: CV-1/EJ; for IC50: Homo sapiens, EJ, 24 h;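 on all read-outs here: colony formation assay with 24 h compound exposure at 37 °C, then 7–10 days drug-free regrowth, colonies stained with crystal violet, controls given medium alone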
[5] = test system: CRL 1420 cells; assay: colony assay of Example 1 with human pancreatic carcinoma CRL 1420 cell line; assay type: cell-based; settings: for Selectivity: CV-1/CRL-1420; for IC50: Homo sapiens, 24 h;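 on all read-outs here: colony formation assay, cells exposed for 24 h then regrown 7 to 10 days without compound, colonies stained with crystal violet, control given medium alone, normal reference CV-1 monkey kidney epithelial cells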
Procedure: as §1

[6] = test system: LOX cells; assay: colony assay of Example 1 with human melanoma LOX cell line; assay type: cell-based; settings: for Selectivity: CV-1/LOX; for IC50: Homo sapiens, LOX, 24 h;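 on all read-outs here: colony formation assay with 24 h exposure at 37 °C, then 7 to 10 days of regrowth, crystal violet staining of colonies, control wells given medium alone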
[7] = 5 mg/kg i.p. on day 1, 4, 8, 10, 12
[8] = CV-1, Table III, normal monkey kidney epithelial cells, colony count after 7 to 10 days
[9] = Table III, normal monkey kidney epithelial cells, colony count after 7 to 10 days
[10] = Table IV, human bladder carcinoma, 24 hours treatment
[11] = Table VII, human pancreatic carcinoma, 24 hours treatment
[12] = Table V, human melanoma, 24 hours treatment

Molecule `CCn1c(=Cc2scc(C)[n+]2CC)sc(=C2Sc3ccc4ccccc4c3N2C)c1=O` [Compound 344] has a response vs control in vivo at 5 mg/kg [1, 7] greater than 288%.

`CCn1c(=Cc2oc3ccc4ccccc4c3[n+]2CC)sc(=C2Oc3ccc4ccccc4c3N2C)c1=O` [Compound 87] was tested, and the response vs control in vivo at 10 mg/kg ([1]; 10 mg/kg i.p. on day 1, 3, 6, 9, 10) was 150%, the IC50 [2, 8] was 20 µg/mL and the “Selectivity (ratio of IC50 for CV-1 and IC50 for CX-1)” value [3] was 400. It also gave an IC50 [3] of 0.05 µg/mL.

With `CCn1c(=Cc2sc3c4ccccc4ccc3[n+]2CC)sc(=C2Sc3ccc4ccccc4c3N2C)c1=O` [Compound 92] the response vs control in vivo at 2.5 mg/kg ([1]; 2.5 mg/kg i.p. on day 1, 2, 3, 4, 6, 7, 8, 10, 11) was 186%, the “CV-1 (IC50)” value [2, 9] was 20 µg/mL and the “Selectivity (ratio of IC50 for CV-1 and IC50 for CX-1)” value [3] was 500. For the same molecule, the “CX-1 (IC50)” value [3] was 0.04 µg/mL.

With `CCn1c(=Cc2cc[n+](CC)c3ccccc23)sc(=C2Sc3ccc4ccccc4c3N2C)c1=O` [Compound 90] the response vs control in vivo at 5 mg/kg ([1]; 5 mg/kg i.p. on day 1, 8, 13) was 163%, the IC50 [2, 8] was 8 µg/mL and the “Selectivity (ratio of IC50 for CV-1 and IC50 for CX-1)” value [3] was 200. It also gave an IC50 [3] of 0.04 µg/mL.

Molecule `CCn1c(=Cc2scc[n+]2CC)sc(=C2Oc3ccc(-c4ccccc4)cc3N2C)c1=O` [Compound 210] has a Selectivity [4] of 100, an IC50 [4, 10] of 0.1 µg/mL and an IC50 ([2]; CV-1, 24 h, Table IV) of 10 µg/mL. It also gave an IC50 ([2]; CV-1, 24 h, Table VII) of 10 µg/mL, an IC50 [2, 8] of 10 µg/mL and a Selectivity [5] of 111. The IC50 [5, 11] was 0.09 µg/mL, the “Selectivity (ratio of IC50 for CV-1 and IC50 for CX-1)” value [3] was 100 and the IC50 [3] was 0.1 µg/mL.

`CCn1c(=Cc2cccc[n+]2CC)sc(=C2Sc3c(ccc4ccccc34)N2C)c1=O` [Compound 239] showed a Selectivity [6] of 400, an IC50 [6, 12] of 0.05 µg/mL and a Selectivity [4] of 250. For the same molecule, the IC50 [4, 10] was 0.08 µg/mL, the IC50 ([2]; CV-1, 24 h, Table IV) was 20 µg/mL and the IC50 ([2]; CV-1, 24 h, Table V) was 20 µg/mL. For the same molecule, the IC50 ([2]; CV-1, 24 h, Table VII) was 20 µg/mL, the IC50 [2, 8] was 20 µg/mL and the Selectivity [5] was 400. The IC50 [5, 11] was 0.05 µg/mL, the “Selectivity (ratio of IC50 for CV-1 and IC50 for CX-1)” value [3] was 200 and the IC50 [3] was 0.1 µg/mL.

`CCn1c(=Cc2cccc[n+]2CC)sc(=C2Oc3c(ccc4ccccc34)N2C)c1=O` [Compound 214] gave a response vs control in vivo at 10 mg/kg ([1]; 10 mg/kg i.p. on day 1, 4, 8, 10, 12) greater than 300%, a Selectivity [6] of 500 and an IC50 [6, 12] of 0.04 µg/mL. It also gave an IC50 ([2]; CV-1, 24 h, Table V) of 20 µg/mL.

In the case of `CCn1c(=Cc2oc3ccccc3[n+]2C)sc(=C2Sc3ccccc3N2C)c1=O` [Compound 12], the Selectivity [6] is reported as greater than 300, the “LOX(IC50)” value [6, 12] is reported as less than 0.1 µg/mL and the Selectivity [4] is reported as greater than 400. The “EJ (IC50)” value [4, 10] was 0.05 µg/mL, the “CV-1 (IC50)” value [2, 9] was greater than 20 µg/mL and the “CV-1 (IC50)” value ([2]; Table IV) was greater than 20 µg/mL. For the same molecule, the “CV-1 (IC50)” value ([2]; Table V) was greater than 30 µg/mL, the “CV-1 (IC50)” value ([2]; Table VII) was 20 µg/mL and the Selectivity [5] was 222. The “CRL-1420(IC50)” value [5, 11] was 0.09 µg/mL, the “Selectivity (ratio of IC50 for CV-1 and IC50 for CX-1)” value [3] was greater than 667 and the “CX-1 (IC50)” value [3] was 0.03 µg/mL.

Work on `CCn1c(=Cc2cccc[n+]2CC)sc(=C2Sc3ccccc3N2C)c1=O` [Compound 283] yielded a response vs control in vivo at 5 mg/kg ([1]; 5 mg/kg i.p. on day 1, 4, 8, 11, 14) greater than 350%.

`CCn1c(=C2CCC[n+]3c2sc2ccccc23)sc(=C2Sc3ccccc3N2C)c1=O` [Compound 343] showed a response vs control in vivo at 5 mg/kg ([1]; 5 mg/kg i.p. on day 1, 3, 4, 6, 8, 10, 13) of 188%.

With `CCn1c(=Cc2cc[n+](CC)c3ccccc23)sc(=C2C=Cc3ccccc3N2C)c1=O` [Compound 256] the response vs control in vivo at 5 mg/kg [1, 7] was 171%, the IC50 [2, 8] was 4 µg/mL and the “Selectivity (ratio of IC50 for CV-1 and IC50 for CX-1)” value [3] was 200. It also gave an IC50 [3] of 0.02 µg/mL.

`CCn1c(=Cc2oc3c4ccccc4ccc3[n+]2CC)sc(=C2Sc3c(ccc4ccccc34)N2C)c1=O` [Compound 238] showed a Selectivity [6] of 1000, an IC50 [6, 12] of 0.02 µg/mL and a Selectivity [4] of 2000. For the same molecule, the IC50 [4, 10] was 0.01 µg/mL, the IC50 ([2]; CV-1, 24 h, Table IV) was 20 µg/mL and the IC50 ([2]; CV-1, 24 h, Table V) was 20 µg/mL. The IC50 ([2]; CV-1, 24 h, Table VII) was 20 µg/mL, the IC50 [2, 8] was 20 µg/mL and the Selectivity [5] was 1000. For the same molecule, the IC50 [5, 11] was 0.02 µg/mL, the “Selectivity (ratio of IC50 for CV-1 and IC50 for CX-1)” value [3] was 400 and the IC50 [3] was 0.05 µg/mL.

Molecule `CCn1c(=Cc2sc3ccccc3[n+]2CC)sc(=C2Sc3ccc(Cl)cc3N2C)c1=O` [Compound 244] has a response vs control in vivo at 10 mg/kg ([1]; 10 mg/kg i.p. on day 1, 2, 6, 8, 13) of 150%, an IC50 [2, 8] of 0.05 µg/mL and an IC50 [3] of 10 µg/mL.

`CCn1c(=Cc2sc3c4ccccc4ccc3[n+]2CC)sc(=C2Sc3ccc(OC)cc3N2C)c1=O` [Compound 53] was tested, and the response vs control in vivo at 10 mg/kg ([1]; 10 mg/kg i.p. on day 1, 2, 3, 5, 8, 10, 13) was 150%, the IC50 [2, 8] was 10 µg/mL and the “Selectivity (ratio of IC50 for CV-1 and IC50 for CX-1)” value [3] was 250. For the same molecule, the IC50 [3] was 0.04 µg/mL.

Reference: US5360803A, “Composition and method for treating cancer” (Dan Farber Cancer Institute, priority 1992, dated 1994)
